Experimental data as given in patent US20230097866A1, “BACTERIAL TOPOISOMERASE INHIBITORS DERIVED FROM ISOMANNIDE” (Ohio State Innovation Foundation, priority 2020, published 2023).
Converted amounts (≈) assume the structure as drawn. Read-outs that look alike come from different tables or passages of the source.

What was measured:
[1] = test system: Klebsiella pneumoniae LSI-2999; assay: MIC panel (Laboratory Specialists, Inc.), K. pneumoniae; format: cell-based; details: LSI2999, Cmpd. 6, CLSI broth microdilution
[2] = test system: Fluoroquinolone-resistant S. aureus (11 strains); assay: MIC90, panel of fluoroquinolone-resistant MRSA isolates; format: cell-based, Staphylococcus aureus
[3] = molecular target: T1, hERG Human Potassium Ion Channel (Homo sapiens, UniProt Q12809); assay: hERG QPatch CiPA assay; format: cell-based; details: mean, duplicate
T1 construct: expressed in transfected cells
T1 sequence (Q12809 whole entry): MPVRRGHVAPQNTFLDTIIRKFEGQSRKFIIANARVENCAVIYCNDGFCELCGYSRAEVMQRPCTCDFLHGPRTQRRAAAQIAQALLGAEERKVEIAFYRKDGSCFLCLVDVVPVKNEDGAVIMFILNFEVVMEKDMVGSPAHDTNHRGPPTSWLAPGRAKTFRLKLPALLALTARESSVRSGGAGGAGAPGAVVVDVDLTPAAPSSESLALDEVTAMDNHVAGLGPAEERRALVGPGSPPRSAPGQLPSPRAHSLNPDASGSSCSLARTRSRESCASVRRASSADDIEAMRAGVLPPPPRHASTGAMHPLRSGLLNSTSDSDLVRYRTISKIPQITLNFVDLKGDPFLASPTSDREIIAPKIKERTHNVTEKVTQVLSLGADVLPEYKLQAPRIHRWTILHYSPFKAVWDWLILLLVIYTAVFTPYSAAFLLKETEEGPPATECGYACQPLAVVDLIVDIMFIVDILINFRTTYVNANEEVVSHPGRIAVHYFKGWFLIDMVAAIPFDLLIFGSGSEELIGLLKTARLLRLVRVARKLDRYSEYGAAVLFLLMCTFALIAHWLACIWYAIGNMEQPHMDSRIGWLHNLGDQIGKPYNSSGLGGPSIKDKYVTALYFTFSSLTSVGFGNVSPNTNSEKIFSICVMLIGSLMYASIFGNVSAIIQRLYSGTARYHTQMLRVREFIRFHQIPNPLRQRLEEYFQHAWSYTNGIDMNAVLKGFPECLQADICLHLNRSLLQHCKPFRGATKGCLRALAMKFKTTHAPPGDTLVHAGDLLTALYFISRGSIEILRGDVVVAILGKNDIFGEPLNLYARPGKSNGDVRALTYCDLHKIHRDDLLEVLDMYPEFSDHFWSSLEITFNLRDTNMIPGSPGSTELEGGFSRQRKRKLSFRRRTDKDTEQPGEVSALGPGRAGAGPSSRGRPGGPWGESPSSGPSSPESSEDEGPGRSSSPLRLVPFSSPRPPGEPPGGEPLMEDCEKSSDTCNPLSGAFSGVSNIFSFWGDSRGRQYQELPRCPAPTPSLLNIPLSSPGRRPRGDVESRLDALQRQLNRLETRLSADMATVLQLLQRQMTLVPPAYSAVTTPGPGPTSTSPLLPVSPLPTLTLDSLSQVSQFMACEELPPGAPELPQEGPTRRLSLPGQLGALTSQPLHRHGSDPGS
Source text: (§1) Early drug discovery programs commonly assess hERG inhibition as the only indicator of potential cardiovascular safety concerns. Researchers have recently recommended a more rigorous evaluation of multiple cardiac ion channels to provide a more comprehensive cardiovascular risk assessment (Fermini, B., et al., A New Perspective in the Field of Cardiac Safety Testing through the Comprehensive In Vitro Proarrhythmia Assay Paradigm. J. Biomolec. Screening 2016, 21, 1-11). Given the promising initial results for 6, further evaluation was undertaken (in duplicate) in a Comprehensive in vitro Proarrhythmia Assay (CiPA) eight assay panel run on the QPatch HT (Sophion, Denmark) automated patch clamp system at three concentrations (3, 30, and 100 μM). All data were filtered for seal quality, seal drop, and current amplitude. A stock solution of the test compound at 30 mM concentration was prepared in DMSO.
The parameters measured were the maximum tail current evoked on stepping to 40 mV and ramping back to −80 mV from the test pulse. The peak current amplitude was calculated before and after compound addition and the amount of block was assessed by dividing the Test compound current amplitude by the Control current amplitude. Control is the mean hERG current amplitude collected 15 seconds at the end of the control; Test Compound is the mean hERG current amplitude collected in the presence of test compound at each concentration. The positive control was E-4031.

[4] = molecular target: T2, Nav1.5 Late Current Human Ion Channel (Homo sapiens, UniProt Q14524); assay: Nav1.5 late current agonist QPatch CiPA assay; format: cell-based; details: normalized to ATXII response
T2 construct: expressed in transfected cells
T2 sequence (Q14524 whole entry): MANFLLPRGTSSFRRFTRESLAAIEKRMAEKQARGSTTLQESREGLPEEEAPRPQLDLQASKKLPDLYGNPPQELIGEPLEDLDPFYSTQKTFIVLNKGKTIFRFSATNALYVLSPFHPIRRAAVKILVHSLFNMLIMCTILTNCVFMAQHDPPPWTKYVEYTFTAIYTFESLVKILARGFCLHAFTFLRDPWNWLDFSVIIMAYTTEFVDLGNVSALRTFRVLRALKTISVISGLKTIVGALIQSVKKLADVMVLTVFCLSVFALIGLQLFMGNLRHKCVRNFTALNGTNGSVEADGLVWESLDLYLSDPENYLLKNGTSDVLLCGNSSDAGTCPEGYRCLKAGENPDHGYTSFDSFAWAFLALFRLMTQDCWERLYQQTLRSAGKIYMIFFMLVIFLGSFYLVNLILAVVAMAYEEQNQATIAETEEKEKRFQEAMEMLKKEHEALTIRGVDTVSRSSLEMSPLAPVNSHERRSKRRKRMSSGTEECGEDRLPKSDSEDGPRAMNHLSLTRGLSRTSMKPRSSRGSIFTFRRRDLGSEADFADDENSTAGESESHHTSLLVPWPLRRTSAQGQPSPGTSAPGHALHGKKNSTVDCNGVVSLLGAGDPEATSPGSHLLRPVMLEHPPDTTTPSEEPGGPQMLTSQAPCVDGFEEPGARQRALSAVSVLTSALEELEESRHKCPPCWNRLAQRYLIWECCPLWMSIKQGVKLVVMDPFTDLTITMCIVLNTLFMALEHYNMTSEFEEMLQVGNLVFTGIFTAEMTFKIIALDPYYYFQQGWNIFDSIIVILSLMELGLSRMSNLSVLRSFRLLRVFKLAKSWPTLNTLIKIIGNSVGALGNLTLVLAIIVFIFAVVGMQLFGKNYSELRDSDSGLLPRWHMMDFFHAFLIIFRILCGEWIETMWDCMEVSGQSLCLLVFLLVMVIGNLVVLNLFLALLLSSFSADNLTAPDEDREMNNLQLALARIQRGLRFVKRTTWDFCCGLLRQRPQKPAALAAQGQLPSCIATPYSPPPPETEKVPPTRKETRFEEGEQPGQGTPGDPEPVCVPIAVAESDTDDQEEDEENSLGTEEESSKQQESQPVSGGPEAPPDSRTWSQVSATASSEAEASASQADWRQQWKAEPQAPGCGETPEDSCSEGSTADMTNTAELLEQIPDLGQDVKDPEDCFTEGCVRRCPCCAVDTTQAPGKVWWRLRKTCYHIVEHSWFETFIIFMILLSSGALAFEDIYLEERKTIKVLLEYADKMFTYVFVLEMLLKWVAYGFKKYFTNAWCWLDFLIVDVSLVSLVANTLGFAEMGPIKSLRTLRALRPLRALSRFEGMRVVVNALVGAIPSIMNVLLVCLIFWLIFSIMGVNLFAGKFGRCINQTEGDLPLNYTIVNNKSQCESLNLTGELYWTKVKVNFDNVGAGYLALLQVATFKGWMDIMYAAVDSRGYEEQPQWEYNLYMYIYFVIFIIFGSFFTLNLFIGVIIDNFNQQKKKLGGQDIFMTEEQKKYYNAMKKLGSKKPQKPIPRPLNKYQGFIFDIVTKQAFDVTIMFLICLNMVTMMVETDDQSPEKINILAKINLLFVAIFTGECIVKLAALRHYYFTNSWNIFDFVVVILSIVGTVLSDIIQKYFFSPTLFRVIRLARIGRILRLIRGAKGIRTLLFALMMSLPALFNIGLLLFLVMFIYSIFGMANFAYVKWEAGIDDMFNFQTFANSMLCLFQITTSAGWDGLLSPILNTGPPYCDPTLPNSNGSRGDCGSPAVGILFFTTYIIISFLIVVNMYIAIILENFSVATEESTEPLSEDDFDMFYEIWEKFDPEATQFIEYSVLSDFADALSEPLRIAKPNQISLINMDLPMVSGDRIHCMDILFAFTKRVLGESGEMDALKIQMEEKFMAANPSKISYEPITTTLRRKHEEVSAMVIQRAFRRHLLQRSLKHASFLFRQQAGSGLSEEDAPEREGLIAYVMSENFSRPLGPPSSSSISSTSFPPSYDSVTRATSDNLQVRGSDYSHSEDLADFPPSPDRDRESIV
Source text: as §1
The parameters measured were the degree of activation of inward current (charge) evoked on stepping to −15 mV from the test pulse. The peak and ramp current (charge) amplitude was calculated before and after compound addition and the amount of current (charge) was assessed by dividing the Test compound current (charge) by the Control current (charge). Control is the mean hNav1.5 late current (charge) collected 15 seconds at the end of the control; Test Compound is the mean hNav1.5 current (charge) collected in the presence of test compound at each concentration. Changes in charge were normalized to the maximum response of the EC50 of ATXII (positive control).

[5] = molecular target: Dopamine transporter (Homo sapiens, UniProt Q01959); assay: Off-target safety panel, dopamine transporter; format: binding; details: duplicate, read-out: % Inhibition at 100 μM conc., Dopamine transporter
Chain of Dopamine transporter (Q01959 whole entry): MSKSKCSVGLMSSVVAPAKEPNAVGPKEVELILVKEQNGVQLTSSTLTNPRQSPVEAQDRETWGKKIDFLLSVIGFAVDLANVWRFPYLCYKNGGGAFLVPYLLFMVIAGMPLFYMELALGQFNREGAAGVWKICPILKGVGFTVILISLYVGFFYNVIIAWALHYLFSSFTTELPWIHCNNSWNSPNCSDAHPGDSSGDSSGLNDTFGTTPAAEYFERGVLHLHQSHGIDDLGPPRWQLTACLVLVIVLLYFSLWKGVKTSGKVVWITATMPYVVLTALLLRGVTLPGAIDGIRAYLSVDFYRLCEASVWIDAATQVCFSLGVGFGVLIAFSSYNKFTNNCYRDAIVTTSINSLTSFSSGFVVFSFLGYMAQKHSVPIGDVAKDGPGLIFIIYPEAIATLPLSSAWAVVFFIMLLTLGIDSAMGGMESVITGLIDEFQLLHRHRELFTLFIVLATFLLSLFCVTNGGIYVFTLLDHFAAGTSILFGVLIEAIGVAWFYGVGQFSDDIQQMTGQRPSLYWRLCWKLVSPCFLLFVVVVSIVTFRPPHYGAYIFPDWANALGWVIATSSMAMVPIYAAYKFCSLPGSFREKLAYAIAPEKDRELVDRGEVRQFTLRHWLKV
Description: Potential off-target pharmacology for compound 6 was also evaluated by screening in duplicate against a panel (Bowes, J., et al., Reducing Safety-Related Drug Attrition: The Use of in vitro Pharmacological Profiling. Nat. Rev. Drug Disc. 2012, 11, 909-922) of 44 receptors, enzymes, etc. Of the 44 potential targets, only five were inhibited by >50% at a concentration of 100 μM (Table 7).

[6] = test system: Enterococcus faecium DRL-4193; assay: MIC panel (Laboratory Specialists, Inc.), E. faecium DRL-4193; format: cell-based; details: DRL4193, Cmpd. 6, vancomycin-susceptible strain
[7] = test system: Streptococcus pneumoniae LSI-4246; assay: MIC panel (Laboratory Specialists, Inc.), S. pneumoniae LSI-4246; format: cell-based; details: LSI4246, Cmpd. 6, penicillin-resistant strain
[8] = test system: S. aureus ATCC 29213; assay: MIC, CLSI broth microdilution, S. aureus ATCC 29213; format: cell-based; details: Staphylococcus aureus, ATCC29213

COc1ccc2ncc(F)c(CC[C@@]3(O)CO[C@@H]4[C@@H](NCc5cc6c(cn5)OCCO6)CO[C@@H]43)c2n1 [Compound 6, (3R, 3aS,6S,6aR)-6-(((2,3-dihydro-[1,4]dioxino[2,36-c]pyridin-7-yl)methyl)amnino)-3-(2-(3-fluoro-6-methoxy-1,5-naphthyridin-4-yl)ethyl)hexahydrofuro[3,2-b]furan-3-ol]
MIC [1]: 128 µg/mL (≈ 257 µM) | MIC90 ([2]; Staphylococcus aureus, Cmpd. 6, MIC90): 2 µg/mL (≈ 4.01 µM) | MIC90 better than that of ciprofloxacin ([2]; panel of fluoroquinolone-resistant MRSA isolates): 16 fold | % Inhibition hERG (tail current) ([3]; 3 μM): −2.4% | % Inhibition hERG (tail current) ([3]; 30 μM): 11.3% | % Inhibition hERG (tail current) ([3]; 100 μM): 39.0% | Navi1.5 Late (agonist - activation of late current) ([4]; 3 μM): 3.4% | Navi1.5 Late (agonist - activation of late current) ([4]; 30 μM): 7.7% | Navi1.5 Late (agonist - activation of late current) ([4]; 100 μM): 17.0% | inhibition at 100 µM [5]: 96% | MIC [6]: 2 µg/mL (≈ 4.01 µM) | MIC [7]: ≤ 0.12 µg/mL | MIC ([8]; CLSI broth microdilution, triplicate, read-out: MIC ATCC 29213): 1 to 4 µg/mL | MIC ([8]; same MIC expressed in μM, read-out: MIC for S. aureus ATCC 29213): 2 to 8 µM
